Experimental data taken from patent US7384629B2, “Biological control of nematodes with Hirsutella minnesotensis” (Regents of the University of Minnesota, priority 2000, dated 2008).
Where two headings read alike, the source gives them in different places.

Columns and labels:
[1] = test system: Hirsutella rhossiliensis; conditions: for Growth rate mm-in-diam, on agar: named vitamin excluded from medium with all other vitamins; for Growth rate mm-in-diam, on agar / Sporulation 10^3/cm^2, on agar / growth in liquit culture (visual rating): 5 weeks; for Spore germination %, on agar / Sporulation 10^3/cm^2, on agar / growth in liquit culture (visual rating): named vitamin excluded
[2] = test system: soybean cyst nematode; test: 1998 field trial (Waseca): SCN population, fungal parasitism, soybean growth; assay type: in vivo, Heterodera glycines
Description: (§1) A field experiment was conducted at one site in Waseca in 1998. Fungi used in this study included three species of egg-parasitic fungi, Verticillium chlamydosporium from Florida, ARF18 from Arkansas, and Cylindrocarpon destructans from Minnesota, and two species of juvenile-parasitic fungi, Hirsutella rhossiliensis and Hirsutella minnesotensis from Minnesota. The fungi were cultured on corn-grits, applied in furrow and mixed into soil. Additionally, aldicarb (nematicide) and lorsban (insecticide) were included for a comparison purpose. Plots applied with fungal culture medium, without addition of the culture medium, and plots with a resistant cultivar Pioneer 9234 were included as controls. Each plot consisted of two rows with row spacing of 30 inches and row length of 15 feet. The plots were separated by four rows without application of agents. Four replicates were used. Nematode egg density at planting, and egg density and juvenile density 2 months after planting and at harvest were determined. […] Levels of fungal parasitism of nematode eggs and juveniles were measured 2 months after planting and at harvest.

[3] = test system: Heterodera glycines; assay type: in vivo
Description: as §1
Other procedures applied in 2000 were the same as used in 1999.

Which “Growth rate mm-in-diam, on agar” value ([1]; isolate ATCC46487) does the source give for `O=C(O)CCCC[C@@H]1SC[C@@H]2NC(=O)N[C@@H]21` [d-Biotin (V.H)] here?
Its value is 39.7 mm-in-diam.

What about the “Growth rate mm-in-diam, on agar” value ([1]; isolate JA16-1) of the same compound?
The value was 16.3 mm-in-diam.

And the “Growth rate mm-in-diam, on agar” value ([1]; isolate OWVT-1)?
Its value is 27.7 mm-in-diam.

What about the “Spore germination %, on agar” value ([1]; isolate ATCC46487) of the same compound?
Its value is 80.0%.

What about the “Sporulation 10^3/cm^2, on agar” value ([1]; isolate ATCC46487) of the same compound?
Its value is 29.5 10^3/cm^2.

What about the “Spore germination %, on agar” value ([1]; isolate JA16-1) of the same compound?
The value was 90.0%.

And the “Sporulation 10^3/cm^2, on agar” value ([1]; isolate JA16-1)?
Its value is 14.1 10^3/cm^2.

And the “growth in liquit culture (visual rating)” value ([1]; isolate JA16-1)?
Its value is “I”.

What about the “Spore germination %, on agar” value ([1]; isolate OWVT-1) of the same compound?
The value was 50.0%.

What about the “Sporulation 10^3/cm^2, on agar” value ([1]; isolate OWVT-1) of the same compound?
The value was 11.7 10^3/cm^2.

How did the “% J2 parasitized, End season” value ([2]; in vivo) turn out when `CNC(=O)O/N=C/C(C)(C)SC` [Aldicarb, aldicarb] was run?
Its value is 4%.

And the “% J2 parasitized, Midseason” value ([2]; in vivo)?
The value was 0%.

And the “Egg population, At planting, Eggs/100 cm^3 soil” value ([2]; in vivo)?
Its value is 772 Eggs/100 cm^3 soil.

What about the “Egg population, End season, % Reduction” value ([2]; in vivo) of the same compound?
The value was 64%.

What about the “Egg population, End season, Eggs/100 cm^3 soil” value ([2]; in vivo) of the same compound?
The value was 4,788 Eggs/100 cm^3 soil.

And the “Egg population, Midseason, % Reduction” value ([2]; in vivo)?
The value was 58%.

What about the “Egg population, Midseason, Eggs/100 cm^3 soil” value ([2]; in vivo) of the same compound?
Its value is 1,200 Eggs/100 cm^3 soil.

What about the “Juvenile (J2) population, End season, % Reduction” value ([2]; in vivo) of the same compound?
The value was 66%.

What about the “Juvenile (J2) population, End season, J2/100 cm^3 soil” value ([2]; in vivo) of the same compound?
Its value is 98.

And the “Juvenile (J2) population, Midseason, % Reduction” value ([2]; in vivo)?
The value was 54%.

And the “Juvenile (J2) population, Midseason, J2/100 cm^3 soil” value ([2]; in vivo)?
Its value is 129.

What about the “Plant growth: Emergence rate (%)” value ([2]; in vivo) of the same compound?
Its value is 88.4%.

And the “Reproduction rate Pf/Pi” value ([2]; in vivo)?
The value was 6.5.

What about the “Reproduction rate Pf/Pm” value ([2]; in vivo) of the same compound?
The value was 4.5.

What about the “Reproduction rate Pm/Pi” value ([2]; in vivo) of the same compound?
Its value is 1.6.

And the “Plant growth: Yield (Bul/Acre)” value ([2]; soybean, 1998 field plots, 1200 g ai/acre)?
Its value is 23.0 Bul/Acre.

And the “% J2 parasitizd, Midseason” value ([3]; in vivo)?
The value was 12.9a %.

And the “Eggs/100 cc soil, At harvest” value ([3]; in vivo)?
Its value is 13,975b Eggs/100 cc soil.

And the “Eggs/100 cc soil, Midseason” value ([3]; in vivo)?
The value was 1,166bc Eggs/100 cc soil.

What about the “J2/100 cc soil, Midseason” value ([3]; in vivo) of the same compound?
Its value is 141bc.

And the “Yield bu/A” value ([3]; soybean, 2000 field plots, means of four replicates)?
Its value is 55.5a bu/A.

With `Nc1ccc(C(=O)O)cc1` [p-Amino-benzoic acid (PABA)] as the compound, how does the “Growth rate mm-in-diam, on agar” value ([1]; isolate ATCC46487) read?
The value was 41.5 mm-in-diam.

And the “Growth rate mm-in-diam, on agar” value ([1]; isolate JA16-1)?
The value was 16.7 mm-in-diam.

What about the “Growth rate mm-in-diam, on agar” value ([1]; isolate OWVT-1) of the same compound?
The value was 28.3 mm-in-diam.

What about the “Spore germination %, on agar” value ([1]; isolate ATCC46487) of the same compound?
Its value is 82.2%.

And the “Sporulation 10^3/cm^2, on agar” value ([1]; isolate ATCC46487)?
Its value is 29.9 10^3/cm^2.

And the “Spore germination %, on agar” value ([1]; isolate JA16-1)?
The value was 84.4%.

And the “Sporulation 10^3/cm^2, on agar” value ([1]; isolate JA16-1)?
Its value is 35.1 10^3/cm^2.

What about the “growth in liquit culture (visual rating)” value ([1]; isolate JA16-1) of the same compound?
Its value is “I”.

And the “Spore germination %, on agar” value ([1]; isolate OWVT-1)?
The value was 51.1%.

And the “Sporulation 10^3/cm^2, on agar” value ([1]; isolate OWVT-1)?
Its value is 14.2 10^3/cm^2.

What does the source list for `Cc1cc2nc3c(=O)[nH]c(=O)nc-3n(C[C@H](O)[C@H](O)[C@H](O)CO)c2cc1C` [Riboflavin, UPS (VB2)]?
Growth rate mm-in-diam, on agar ([1]; isolate ATCC46487): 41.0 mm-in-diam; Growth rate mm-in-diam, on agar ([1]; isolate JA16-1): 20.2 mm-in-diam; Growth rate mm-in-diam, on agar ([1]; isolate OWVT-1): 30.2 mm-in-diam; Spore germination %, on agar ([1]; isolate ATCC46487): 91.1%; Sporulation 10^3/cm^2, on agar ([1]; isolate ATCC46487): 30.6 10^3/cm^2; Spore germination %, on agar ([1]; isolate JA16-1): 85.6%; Sporulation 10^3/cm^2, on agar ([1]; isolate JA16-1): 13.2 10^3/cm^2; growth in liquit culture (visual rating) ([1]; isolate JA16-1): I; Spore germination %, on agar ([1]; isolate OWVT-1): 60.0%; Sporulation 10^3/cm^2, on agar ([1]; isolate OWVT-1): 11.1 10^3/cm^2; growth in liquit culture (visual rating) ([1]; isolate OWVT-1): I

With `O[C@H]1[C@H](O)[C@@H](O)[C@H](O)[C@@H](O)[C@H]1O` [myo-inositol] as the compound, how does the “Growth rate mm-in-diam, on agar” value ([1]; isolate ATCC46487) read?
Its value is 40.8 mm-in-diam.

What about the “Growth rate mm-in-diam, on agar” value ([1]; isolate JA16-1) of the same compound?
The value was 18.3 mm-in-diam.

What about the “Growth rate mm-in-diam, on agar” value ([1]; isolate OWVT-1) of the same compound?
Its value is 31.5 mm-in-diam.

What about the “Spore germination %, on agar” value ([1]; isolate ATCC46487) of the same compound?
Its value is 72.2%.

And the “Sporulation 10^3/cm^2, on agar” value ([1]; isolate ATCC46487)?
Its value is 41.9 10^3/cm^2.

And the “Spore germination %, on agar” value ([1]; isolate JA16-1)?
The value was 84.4%.

What about the “Sporulation 10^3/cm^2, on agar” value ([1]; isolate JA16-1) of the same compound?
Its value is 16.7 10^3/cm^2.

What about the “growth in liquit culture (visual rating)” value ([1]; isolate JA16-1) of the same compound?
The value was “I”.

And the “Spore germination %, on agar” value ([1]; isolate OWVT-1)?
The value was 64.4%.

And the “Sporulation 10^3/cm^2, on agar” value ([1]; isolate OWVT-1)?
Its value is 8.3 10^3/cm^2.

For `Cc1ncc(CO)c(CO)c1O` [Pyridoxine (VB6)], which “Growth rate mm-in-diam, on agar” value ([1]; isolate ATCC46487) is on record?
The value was 40.5 mm-in-diam.

What about the “Growth rate mm-in-diam, on agar” value ([1]; isolate JA16-1) of the same compound?
The value was 17.2 mm-in-diam.

And the “Growth rate mm-in-diam, on agar” value ([1]; isolate OWVT-1)?
Its value is 29.5 mm-in-diam.

What about the “Spore germination %, on agar” value ([1]; isolate ATCC46487) of the same compound?
The value was 74.4%.

And the “Sporulation 10^3/cm^2, on agar” value ([1]; isolate ATCC46487)?
Its value is 31.1 10^3/cm^2.

What about the “growth in liquit culture (visual rating)” value ([1]; isolate ATCC46487) of the same compound?
The value was “III (III = hyphae growth or colonies form a pellet, less than 2.5 ml)”.

And the “Spore germination %, on agar” value ([1]; isolate JA16-1)?
Its value is 90.0%.

What about the “Sporulation 10^3/cm^2, on agar” value ([1]; isolate JA16-1) of the same compound?
The value was 16.5 10^3/cm^2.

And the “growth in liquit culture (visual rating)” value ([1]; isolate JA16-1)?
Its value is “I”.

What about the “Spore germination %, on agar” value ([1]; isolate OWVT-1) of the same compound?
Its value is 50.0%.

What about the “Sporulation 10^3/cm^2, on agar” value ([1]; isolate OWVT-1) of the same compound?
The value was 13.0 10^3/cm^2.

Which “Growth rate mm-in-diam, on agar” value ([1]; isolate ATCC46487) does the source give for `Cc1ncc(C[n+]2csc(CCO)c2C)c(N)n1` [Thiamine (VB1)] here?
The value was 38.5 mm-in-diam.

And the “Growth rate mm-in-diam, on agar” value ([1]; isolate JA16-1)?
Its value is 20.3 mm-in-diam.

And the “Growth rate mm-in-diam, on agar” value ([1]; isolate OWVT-1)?
Its value is 24.7 mm-in-diam.

What about the “Spore germination %, on agar” value ([1]; isolate ATCC46487) of the same compound?
Its value is 75.6%.

What about the “Sporulation 10^3/cm^2, on agar” value ([1]; isolate ATCC46487) of the same compound?
The value was 30.1 10^3/cm^2.

What about the “Spore germination %, on agar” value ([1]; isolate JA16-1) of the same compound?
Its value is 91.1%.

And the “Sporulation 10^3/cm^2, on agar” value ([1]; isolate JA16-1)?
The value was 30.4 10^3/cm^2.

What about the “Spore germination %, on agar” value ([1]; isolate OWVT-1) of the same compound?
Its value is 58.9%.

And the “Sporulation 10^3/cm^2, on agar” value ([1]; isolate OWVT-1)?
The value was 15.7 10^3/cm^2.
